Laboratory results: patent US8946144B2, “Phosphonated glycopeptide and lipoglycopeptide antibiotics and uses thereof for the prevention and treatment of bone and joint infections” (The Medicines Company, priority 2006, dated 2015)
Values after ≈ are worked out from the molar mass of the structure shown. Structures can show the parent of a compound that is named as a salt.

Tests used:
[1] = system: S. aureus strain ATCC13709; experiment: Antibacterial susceptibility (MIC) in CAMHB; assay type: cell-based; settings: for Minimum inhibitory concentration, CAMHB: S. aureus ATCC 13709, cation adjusted Mueller-Hinton broth, 37° C., 18 h; for MIC: Staphylococcus aureus, ATCC13709, 18 h, read-out: Minimum inhibitory concentration, CAMHB
Protocol: (§1) Susceptibility of S. aureus strain ATCC13709 to the commercial antibiotics and synthesized compounds was determined by following the guidelines set by the Clinical and Laboratory Standards Institute (formerly the National Committee for Clinical Laboratory Standards) (M26-A). Compounds were diluted two-fold serially in either DMSO (Vancomycin 4, Oritavancin 8, compounds 10, 31, 33, 39, 44, 50, 60, 65), DMF (compounds 18 and 21) or in PBS (compound 6) and transferred to cation-adjusted Mueller Hinton broth (CAMHB; Becton Dickinson). 50 μL of compounds diluted in CAMHB was mixed with […] of bacteria diluted in CAMHB in 96-well microtiter plates. The final number of micro-organisms in the assay was 5×10^5 c.f.u. per mL and the final concentration of DMSO or DMF in the assay, if present, was 1.25%. Assays were set up in duplicate and incubated at 37° C. for 18 h. The concentration of compound that inhibited visible growth was reported as the minimum inhibitory concentration (MIC).

[2] = system: S. aureus strain ATCC13709; experiment: Antibacterial susceptibility (MIC) in the presence of 50% serum; assay type: cell-based; settings: for Minimum inhibitory concentration, CAMHB + 50% Human Serum / Minimum inhibitory concentration, CAMHB + 50% Mouse Serum / Minimum inhibitory concentration, CAMHB + 50% Rat Serum: S. aureus ATCC 13709; for MIC: Staphylococcus aureus
Protocol: as §1
Susceptibility testing experiments were also carried out in the presence of serum. These experiments were carried out similar to the susceptibility testing with the following modifications. 75 μL of compounds diluted in CAMHB was mixed with 75 μL of bacteria diluted in 100% serum from any given source (commercial pooled mouse serum (MS) and human serum (HS), Equitech-Bio Inc.). The final concentration of animal serum in the assay was 50% and the concentrations of all other components were identical to those described for susceptibility testing.

[3] = Regeneration of parent drug from bone powder-bound prodrug; assay type: in vitro ADME; settings: 24 h incubation, 37° C.
Protocol: Amounts of parent drug “regenerated” from the phosphonated prodrug were measured as follows. Washed bone powder-bound prodrugs from the above experiment were resuspended in 400 μL PBS+2% DMSO or in 400 μL 50% (v/v in PBS+2% DMSO) human or rat serum. The suspension was incubated overnight at 37° C., centrifuged at 13,000 rpm for 2 min and the supernatant was recovered. The amount of regenerated parent drug in the supernatant was determined by measurements using the microbiological assays that were previously described for the prodrugs themselves. The amount of released drug from prodrug was deduced from standard curves of known amounts of parent drug that were used as reference for each experiment. The amount of regenerated drug assessed by this bioassay was corroborated by MIC determination. The percentage of drug regenerated in PBS or serum after the overnight incubation (Table 2) was deduced from the difference between the amount of bound prodrug and the amount of regenerated drug (not shown).

[4] = ATCC13709, read-out: Minimum inhibitory concentration, CAMHB + 50% Human Serum
[5] = ATCC13709, read-out: Minimum inhibitory concentration, CAMHB + 50% Mouse Serum
[6] = ATCC13709, read-out: Minimum inhibitory concentration, CAMHB + 50% Rat Serum

Compound	Minimum inhibitory concentration, CAMHB [1]	Minimum inhibitory concentration, CAMHB + 50% Human Serum [2]	Minimum inhibitory concentration, CAMHB + 50% Mouse Serum [2]	Minimum inhibitory concentration, CAMHB + 50% Rat Serum [2]	% Conversion (prodrug converted to parent drug) ([3]; 50% human serum)	% Conversion (prodrug converted to parent drug) ([3]; 50% rat serum)	% Conversion (prodrug converted to parent drug) ([3]; PBS)	MIC [1]	MIC [2, 4]	MIC [2, 5]	MIC [2, 6]
CC(C)CC(C(=O)NC1C(=O)NC(CC(N)=O)C(=O)NC2C(=O)NC3C(=O)NC(C(=O)NC(C(=O)O)c4cc(O)cc(O)c4-c4cc3ccc4O)C(O)c3ccc(c(Cl)c3)Oc3cc2cc(c3OC2OC(CO)C(O)C(O)C2OC2CC(C)(N)C(O)C(C)O2)Oc2ccc(cc2Cl)C1O)N(C)C(=O)CCC(=O)NC(P(=O)(O)O)P(=O)(O)O (stereo not shown) [Compound 6]	64 µg/mL (≈ 37.2 µM)	16 µg/mL	32 µg/mL	128 µg/mL	–	–	–	–	–	–	–
CC(C)C[C@H](C(=O)N[C@H]1C(=O)N[C@@H](CC(N)=O)C(=O)N[C@H]2C(=O)N[C@H]3C(=O)N[C@H](C(=O)N[C@H](C(=O)O)c4cc(O)cc(O)c4-c4cc3ccc4O)[C@H](O[C@H]3C[C@](C)(N)[C@@H](O)[C@H](C)O3)c3ccc(c(Cl)c3)Oc3cc2cc(c3O[C@@H]2O[C@H](CO)[C@@H](O)[C@H](O)[C@H]2O[C@H]2C[C@](C)(NCc3ccc(-c4ccc(Cl)cc4)cc3)[C@@H](O)[C@H](C)O2)Oc2ccc(cc2Cl)[C@H]1O)N(C)C(=O)CCCC(=O)NC(P(=O)(O)O)P(=O)(O)O.N.N.N [Compound 10]	>32 µg/mL	>32 µg/mL	>32 µg/mL	>32 µg/mL	–	–	–	–	–	–	–
CNC(CC(C)C)C(=O)NC1C(=O)NC(CC(N)=O)C(=O)NC2C(=O)NC3C(=O)NC(C(=O)NC(C(=O)OCC(=O)NC(P(=O)(O)O)P(=O)(O)O)c4cc(O)cc(O)c4-c4cc3ccc4O)C(O)c3ccc(c(Cl)c3)Oc3cc2cc(c3OC2OC(CO)C(O)C(O)C2OC2CC(C)(N)C(O)C(C)O2)Oc2ccc(cc2Cl)C1O (stereo not shown) [Compound 18]	16 µg/mL (≈ 9.52 µM)	8 µg/mL	16 µg/mL	32 µg/mL	2.34%	2.58%	2.09%	–	–	–	–
CNC(CC(C)C)C(=O)NC1C(=O)NC(CC(N)=O)C(=O)NC2C(=O)NC3C(=O)NC(C(=O)NC(C(=O)OCC(=O)Nc4ccc(CC(P(=O)(O)O)P(=O)(O)O)cc4)c4cc(O)cc(O)c4-c4cc3ccc4O)C(O)c3ccc(c(Cl)c3)Oc3cc2cc(c3OC2OC(CO)C(O)C(O)C2OC2CC(C)(N)C(O)C(C)O2)Oc2ccc(cc2Cl)C1O (stereo not shown) [Compound 21]	16 µg/mL (≈ 9.04 µM)	16 µg/mL	16 µg/mL	32 µg/mL	3.5%	4.1%	3.5%	–	–	–	–
CN[C@H](CC(C)C)C(=O)N[C@H]1C(=O)N[C@@H](CC(N)=O)C(=O)N[C@H]2C(=O)N[C@H]3C(=O)N[C@H](C(=O)N[C@H](C(=O)OCC(=O)NC(P(=O)(O)O)P(=O)(O)O)c4cc(O)cc(O)c4-c4cc3ccc4O)[C@H](O[C@H]3C[C@](C)(N)[C@@H](O)[C@H](C)O3)c3ccc(c(Cl)c3)Oc3cc2cc(c3O[C@@H]2O[C@H](CO)[C@@H](O)[C@H](O)[C@H]2O[C@H]2C[C@](C)(NCc3ccc(-c4ccc(Cl)cc4)cc3)[C@@H](O)[C@H](C)O2)Oc2ccc(cc2Cl)[C@H]1O.O=C(O)C(F)(F)F.O=C(O)C(F)(F)F.O=C(O)C(F)(F)F [Compound 31]	16 µg/mL	32 µg/mL	2 µg/mL	2 µg/mL	–	–	–	–	–	–	–
CN[C@H](CC(C)C)C(=O)N[C@H]1C(=O)N[C@@H](CC(N)=O)C(=O)N[C@H]2C(=O)N[C@H]3C(=O)N[C@H](C(=O)N[C@H](C(=O)OCC(=O)Nc4ccc(CC(P(=O)(O)O)P(=O)(O)O)cc4)c4cc(O)cc(O)c4-c4cc3ccc4O)[C@H](O[C@H]3C[C@](C)(N)[C@@H](O)[C@H](C)O3)c3ccc(c(Cl)c3)Oc3cc2cc(c3O[C@@H]2O[C@H](CO)[C@@H](O)[C@H](O)[C@H]2O[C@H]2C[C@](C)(NCc3ccc(-c4ccc(Cl)cc4)cc3)[C@@H](O)[C@H](C)O2)Oc2ccc(cc2Cl)[C@H]1O.N.N.N [Compound 33]	>32 µg/mL	>32 µg/mL	8 µg/mL	8 µg/mL	–	–	–	–	–	–	–
CC(C)C[C@H](C(=O)N[C@H]1C(=O)N[C@@H](CC(N)=O)C(=O)N[C@H]2C(=O)N[C@H]3C(=O)N[C@H](C(=O)N[C@H](C(=O)O)c4cc(O)cc(O)c4-c4cc3ccc4O)[C@H](O[C@H]3C[C@](C)(N)[C@@H](O)[C@H](C)O3)c3ccc(c(Cl)c3)Oc3cc2cc(c3O[C@@H]2O[C@H](CO)[C@@H](O)[C@H](O)[C@H]2O[C@H]2C[C@](C)(NCc3ccc(-c4ccc(Cl)cc4)cc3)[C@@H](O)[C@H](C)O2)Oc2ccc(cc2Cl)[C@H]1O)N(C)C(=O)CCC(P(=O)(O)O)P(=O)(O)O [Compound 39]	>32 µg/mL	>32 µg/mL	>32 µg/mL	>32 µg/mL	–	0.9%	0.01%	–	–	–	–
CC(C)C[C@H](C(=O)N[C@H]1C(=O)N[C@@H](CC(N)=O)C(=O)N[C@H]2C(=O)N[C@H]3C(=O)N[C@H](C(=O)N[C@H](C(=O)O)c4cc(O)cc(O)c4-c4cc3ccc4O)[C@H](O[C@H]3C[C@](C)(N)[C@@H](O)[C@H](C)O3)c3ccc(c(Cl)c3)Oc3cc2cc(c3O[C@@H]2O[C@H](CO)[C@@H](O)[C@H](O)[C@H]2O[C@H]2C[C@](C)(NCc3ccc(-c4ccc(Cl)cc4)cc3)[C@@H](O)[C@H](C)O2)Oc2ccc(cc2Cl)[C@H]1O)N(C)C(=O)CC(P(=O)(O)O)P(=O)(O)O.N.N.N [Compound 44]	32 µg/mL	32 µg/mL	4 µg/mL	4 µg/mL	–	–	–	–	–	–	–
CC(C)C[C@H](C(=O)N[C@H]1C(=O)N[C@@H](CC(N)=O)C(=O)N[C@H]2C(=O)N[C@H]3C(=O)N[C@H](C(=O)N[C@H](C(=O)O)c4cc(O)cc(O)c4-c4cc3ccc4O)[C@H](O[C@H]3C[C@](C)(N)[C@@H](O)[C@H](C)O3)c3ccc(c(Cl)c3)Oc3cc2cc(c3O[C@@H]2O[C@H](CO)[C@@H](O)[C@H](O)[C@H]2O[C@H]2C[C@](C)(NCc3ccc(-c4ccc(Cl)cc4)cc3)[C@@H](O)[C@H](C)O2)Oc2ccc(cc2Cl)[C@H]1O)N(C)C(=O)CCCOC(=O)CC(P(=O)(O)O)P(=O)(O)O [Compound 50]	32 µg/mL (≈ 15.3 µM)	>32 µg/mL	32 µg/mL	>32 µg/mL	–	–	–	–	–	–	–
CN[C@H](CC(C)C)C(=O)N[C@H]1C(=O)N[C@@H](CC(N)=O)C(=O)N[C@H]2C(=O)N[C@H]3C(=O)N[C@H](C(=O)N[C@H](C(=O)O)c4cc(O)cc(O)c4-c4cc3ccc4O)[C@H](O[C@H]3C[C@](C)(N)[C@@H](O)[C@H](C)O3)c3ccc(c(Cl)c3)Oc3cc2cc(c3O[C@@H]2O[C@H](CO)[C@@H](O)[C@H](O)[C@H]2O[C@H]2C[C@](C)(NCc3ccc(-c4ccc(Cl)cc4)cc3)[C@@H](O)[C@H](C)O2)Oc2ccc(cc2Cl)[C@H]1O [Oritavancin (8), oritavancin bisphosphoric acid salt, reference compound]	–	–	–	–	–	–	–	0.5 µg/mL	1 µg/mL	2 µg/mL	0.25 µg/mL
CN[C@H](CC(C)C)C(=O)N[C@H]1C(=O)N[C@@H](CC(N)=O)C(=O)N[C@H]2C(=O)N[C@H]3C(=O)N[C@H](C(=O)N[C@H](C(=O)O)c4cc(O)cc(O)c4-c4cc3ccc4O)[C@H](O)c3ccc(c(Cl)c3)Oc3cc2cc(c3O[C@@H]2O[C@H](CO)[C@@H](O)[C@H](O)[C@H]2O[C@H]2C[C@](C)(N)[C@H](O)[C@H](C)O2)Oc2ccc(cc2Cl)[C@H]1O [Vancomycin (4), vancomycin hydrochloride, reference compound]	–	–	–	–	–	–	–	1 µg/mL	1 µg/mL	2 µg/mL	2 µg/mL
